Data taken from patent publication US20210238136A1, “AZETIDINE DERIVATIVE, AND PRODRUG THEREOF” (DAIICHI SANKYO COMPANY, LIMITED, priority 2018, published 2021).

Key:
[1] = test system: activated T cells (CD4+ T cells from mouse spleen); assay: 3H-thymidine uptake in activated T cells; type: cell-based, mouse (C57BL/6J); details: T-cell; mouse spleen CD4+ T cells activated with Dynabeads Mouse T-Activator CD3/CD28; read-out: IC50 (3H-thymidine uptake, proliferation of activated T cells)
Description: Effect of Test Substance on ^3H-Thymidine Uptake in Activated T Cells
The effect of test substance on ^3H-thymidine uptake by activation was evaluated using T cells from mouse spleen. The spleen was removed from euthanized C57BL/6J mice, and finely sliced, then triturated on a cell strainer (40 μm mesh), and cells were collected by centrifugation. The collected splenocytes were treated with Cold lyser containing 0.17 M NH4Cl for 5 minutes to hemolytically remove red blood cells and then washed. The resulting cells were used as the splenocytes. From the splenocytes, CD4+ T cells were isolated using an EasySep Mouse CD4+ T cell isolation kit (STEMCELL Technologies Inc.). The CD4+ T cells were seeded into 96-well round-bottom plates. To the plates, test substance or Vehicle was added, and Dynabeads Mouse T-Activator CD3/CD28 (Thermo Fisher Scientific Inc.) was added, then the cells were cultured at 37° C. under 5% CO2. After 24 hours of culture, ^3H-Thymidine (PerkinElmer Inc.) diluted with medium was added to each well, then the cells were further cultured at 37° C. under 5% CO2 overnight. To measure ^3H-Thymidine uptake into the nuclei of the cells, the cells were collected into filter plates UniFilter-96 GF/B (PerkinElmer Inc.) using a FilterMate Universal Harvester (PerkinElmer Inc.). The filter plates were placed in a dryer and left still for 2 hours or more. Then, scintillation cocktail MicroScint-O (PerkinElmer Inc.) was added to the plates, and radioactivity was measured with TopCount NXT (PerkinElmer Inc.). With the radioactivity of the test substance-free group set as 100% and the radioactivity of the non-activation group as 0%, the relative value (proliferation rate, % of vehicle) of the radioactivity of each well to which test substance was added was calculated. The value of % of vehicle was incorporated into analysis software Prism (Version 5.0, GraphPad Software), the “Nonlinear Regression Log (inhibitor) vs Reaction Variable Inclination” was selected, and then sigmoid fitting with restrictions of Bottom=0 and Top=100 was performed to calculate 50% inhibitory concentration (IC50).

[2] = Pharmacokinetic test of prodrug compounds in mouse; type: in vivo, females, non-fasting); details: female, C57BL/6J; mouse plasma, IV 1 mg/kg of the active compound; read-out: AUClast after IV administration
Description: For prodrug compounds, the compounds of Examples 44, 103, and 104 (active compound of these is the compound of Example 41) and the compounds of Examples 89, 94, and 97 (active compound of these is the compound of Example 42), the plasma concentrations of the active compounds after oral administration to mice were measured, and various PK parameters were calculated. The method was as follows:
To C57BL/6J mice (females, non-fasting), the Example compounds were administered and blood sampling was performed under the following conditions.
Intravenous (IV): 1 mg/kg (n=2, 10% HP-β-CD dissolved in Saline/DMSO=95/5, v/v) Oral (PO): 10 mg/kg (n=2, 0.5% HPC dissolved in water)
After blood sampling, plasma was obtained by centrifugation, and to 10 μL of the obtained plasma, an equal amount of DMSO was added. […] The obtained samples were measured and quantitatively analyzed using MassLynx (version 4.1, Waters Corporation) under the following conditions.
From the plasma concentration measurements of the obtained active compound, the following PK parameters were calculated using Moment (Microsoft Excel).
AUClast: Area under plasma concentration-time curve to the last quantifiable time point Cmax: Maximum plasma concentration

[3] = test system: IFN-α production in mouse splenocytes (pDC activation by CpG-ODN D35); assay: IFN-α production in mouse splenocytes stimulated with TLR9 ligand CpG-ODN D35; type: cell-based, mouse (C57BL/6J); details: for IC50: Splenocyte, mouse splenocytes, CpG-ODN D35 1 μM, 24 hours of culture, ELISA; for effect on IFN-α production: test substances added at 1 nM to 300 nM
Description: The test substances were added at concentrations of 1 nM to 300 nM.
Effect of Test Substance on IFN-α Production in Mouse Splenocytes
Production of IFN-α by TLR9 ligand CpG-ODN D35 stimulation activating pDC was evaluated. Splenocytes were prepared from euthanized C57BL/6J mice in the same way as Test Example 1. Splenocytes were seeded into 96-well round-bottom plates, and test substance was added, and then the plates were preincubated for 30 minutes. Then, CpG-ODN D35 (final concentration 1 μM) was added, and the cells were cultured at 37° C. under 5% CO2. After 24 hours of culture, the culture supernatant was collected, and the IFN-α concentration in the supernatant was measured with an ELISA kit (Mouse IFN-alpha Platinum ELISA Kit, eBioscience). The relative value of the IFN-α concentration of each well when the IFN-α production of the test substance-free group was set as 100% and the amount of the non-stimulated group as 0% (IFN-α production rate, % of vehicle) was calculated. The relative value of the IFN-α concentration was incorporated into analysis software Prism (Version 5.0, GraphPad Software), the “Nonlinear Regression Log (inhibitor) vs Reaction Variable Inclination” was selected for each compound, and then sigmoid fitting with restrictions of Bottom=0 and Top=100 was performed to create a graph of the concentration reaction curve and calculate 50% inhibitory concentration (IC50).

With `N[C@@H](Cc1cccc(S(=O)(=O)N2CC(Oc3ccc(F)cc3)(c3ccccc3)C2)c1)C(=O)O` [Example 41, (S)-2-Amino-3-(3-((3-(4-fluorophenoxy)-3-phenylazetidin-1-yl)sulfonyl)phenyl)propanoic acid] the IC50 [1] was 5.1 nM, the AUC(0-t) [2] was 728 ng·h/mL and the IC50 [3] was 21 nM. For the same compound, the “effect on IFN-α production” value [3] was “concentration-dependent suppression effects”.
Work on `N[C@@H](Cc1cccc(S(=O)(=O)N2CC(Oc3cccc(F)c3)(c3ccccc3)C2)c1)C(=O)O` [Example 42, (S)-2-Amino-3-(3-((3-(3-fluorophenoxy)-3-phenylazetidin-1-yl)sulfonyl)phenyl)propanoic acid] yielded an IC50 [1] of 4.1 nM, an AUC(0-t) [2] of 499 ng·h/mL and an IC50 [3] of 13 nM. The “effect on IFN-α production” value [3] was “concentration-dependent suppression effects”.
